The test system of assay [1] is mexY (EC) strain. Briefly: Efflux ability inhibition effect on drug efflux pump MexY (Test Examples 1 and 3): proliferation (OD595) of mexY (EC) strain with EM or LVFX at 1/4 MIC, EC75. In kind it is cell-based, Escherichia coli. To be noted: Table 51, Test Example 1, 16 to 20 hours culture, OD595; for EC75, mexY (EC) strain, EM: combined with EM at 1/4 MIC; for EC75, mexY (EC) strain, LVFX: combined with LVFX at 1/4 MIC. As to the method:
The efflux ability inhibition effect of the test compound on the drug efflux pump was evaluated using the bacterial proliferative ability in the presence of EM or LVFX as an index.
EM is a macrolide antibacterial agent and is a drug that is discharged outside the bacteria by MexB and MexY LVFX is a quinolone antibacterial agent and is a drug that is discharged outside the bacteria by MexB and MexY In a case where the test compound has an efflux ability inhibitory ability against the drug efflux pump, the proliferation of bacteria is suppressed by the combined use of EM or LVFX and the test compound, as compared with the case where EM or LVFX is used alone.
A mutant strain (hereinafter, referred to as an “mexB (EC) strain”) obtained by transferring the genes of the main multidrug efflux system MexAB-OprM of Pseudomonas aeruginosa described in Nature, 2013, Vol. 500, pp. 102 to 106 as a plasmid into Escherichia coli strains in which the acrB and tolC genes of the multidrug efflux system AcrAB-TolC were deleted as described in Journal of Infection and Chemotherapy 2008, Vol. 14, pp. 23 to 29, and a gene transfer strain (hereinafter, referred to as an “mexY (EC) strain”) of another main multidrug efflux system MexXY-OprM of Pseudomonas aeruginosa were used for the evaluation of test compounds.
In the mexB (EC) strain, an expression level of MexB of the drug efflux pump is accelerated, and in the mexY (EC) strain, an expression level of MexY of the drug efflux pump is accelerated.
For culturing each Escherichia coli strain, a 96-well plate (amount of culture medium per well: 100 μL) was used and Luria-Bertani broth (LB) culture medium was used. The inoculation amount of the bacteria was set to 10^4 to 5 CFU/well.
The mexB (EC) strain and the mexY (EC) strain were cultured for 16 to 20 hours in a culture medium to which EM or LVFX and test compounds at various concentrations (0 to 800 μM) were added, and the proliferation of the bacterial strains was evaluated by optical turbidity at 595 nm (OD595). The concentration of the antibacterial agents (EM and LVFX) in the culture medium were each set to ¼ of the minimum inhibitory concentration (MIC) (hereinafter, referred to as ¼ MIC) of the single antibacterial agent.
The proliferation of bacteria in a case where the antibacterial agent was added at the concentration of ¼ MIC in a case where the test compound was not added was measured, and compared with the proliferation of bacteria in a case where the test compound was contained, and the lowest concentration of the test compound at which the proliferation was inhibited by 75% or more was defined as the drug efflux pump inhibitory ability of the test compound as 75% inhibitory effect concentration (EC75).
The drug efflux pump inhibitory ability of each test compound in a case of being used in combination with the antibacterial agent against the mexB (EC) strain and the mexY (EC) strain was evaluated as follows according to the value of EC75. • S: EC75≤[…] • A: 12.5 μM<EC75≤25 μM • B: 25 μM<EC75≤100 μM • C: […]
In the same manner as in Test Example 1, the efflux ability inhibition effect of the test compound on the drug efflux pump was evaluated using the bacterial proliferation ability in the presence of EM or LVFX as an index.

Assay [2] relates to S-3769 strain. As to the kind of experiment: Combinational effect with antibacterial agent against Pseudomonas aeruginosa (Test Examples 2 and 4): S-3769 strain with AMK or GM at 1/4 MIC, EC99. It is filed as cell-based. The conditions noted are these: for EC99, S-3769 strain, AMK / EC99, S-3769 strain, GM: Table 52, Test Example 2, 16 to 20 hours culture, OD595; for EC99, S-3769 strain, AMK / EC99, combinational effect with AMK, S-3769 strain: combined with AMK at 1/4 MIC; for EC99, S-3769 strain, GM / EC99, combinational effect with GM, S-3769 strain: combined with GM at 1/4 MIC; for EC99, combinational effect with AMK, S-3769 strain / EC99, combinational effect with GM, S-3769 strain: Test Example 4. The gist of the method: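 EC99, the lowest test-compound concentration inhibiting growth by ≥99% (OD595), was measured with aminoglycoside AMK or GM held at ¼ MIC. Strain S-3769, a MexY-overexpressing clinical isolate, was cultured in CAMHB at 10^4 to 5 CFU/well for 16–20 h; compound range 0–800 μM.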

Assay [3] has as its system mexB (PA) strain. As to the kind of experiment: Combinational effect with antibacterial agent against Pseudomonas aeruginosa (Test Examples 2 and 4): mexB (PA) strain with LVFX, TC or AZT at 1/4 MIC, EC99. In kind it is cell-based. To be noted: for EC99, mexB (PA), AZT / EC99, mexB (PA), LVFX / EC99, mexB (PA), TC: Table 52, Test Example 2, 16 to 20 hours culture, OD595; for EC99, mexB (PA), AZT / EC99, combinational effect with AZT, mexB (PA): combined with AZT at 1/4 MIC; for EC99, mexB (PA), LVFX / EC99, combinational effect with LVFX, mexB (PA): combined with LVFX at 1/4 MIC; for EC99, mexB (PA), TC / EC99, combinational effect with TC, mexB (PA): combined with TC at 1/4 MIC; for EC99, combinational effect with AZT, mexB (PA) / EC99, combinational effect with LVFX, mexB (PA) / EC99, combinational effect with TC, mexB (PA): mexB (PA) strain, Test Example 4. The gist of the method:
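EC99 denotes the minimum test-compound concentration (range 0–800 μM) that suppresses ≥99% of growth, measured by OD595, when combined with ¼ MIC levofloxacin (LVFX), tetracycline or aztreonam. The efflux-pump mutant mexB (PA), expressing mainly MexAB-OprM, was inoculated at 10^4–5 CFU/well in CAMHB for 16–20 h.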

Counter-ions that a name gives are not always drawn.

On to `O=C(CN1CCN(CCc2ccccc2)CC1)N1CCN(CC2CCCCC2)CC1` [Example 210, Hydrochloride of 1-(4-(cyclohexylmethyl)piperazin-1-yl)-2-(4-phenethylpiperazin-1-yl)ethan-1-one], for which the “EC75, mexY (EC) strain, EM” value in assay [1] is “B (25 μM<EC75≤100 μM)”.

Turning to `CCOc1cccc(F)c1CN1CCN(C(=O)[C@H](N)C2CCN(CCn3c(=O)ccc4ncc(F)cc43)CC2)CC1` [Example 14, Hydrobromide of (R)-1-(2-(4-(1-amino-2-(4-(2-ethoxy-6-fluorobenzyl)piperazin-1-yl)-2-oxoethyl)piperidin-1-yl)ethyl)-7-fluoro-1,5-naphthyridin-2(1H)-one], in assay [1], the “EC75, mexY (EC) strain, EM” value was “B (25 μM<EC75≤100 μM)” and the “EC75, mexY (EC) strain, LVFX” value is reported as “B (25 μM<EC75≤100 μM)”.

Regarding `CCOc1cccc(F)c1CN1CCN(C(=O)[C@H](N)C2CCN(CCC3CCCCC3)CC2)CC1` [Example 47, Hydrobromide of (R)-2-amino-2-(1-(2-cyclohexylethyl)piperidin-4-yl)-1-(4-(2-ethoxy-6-fluorobenzyl)piperazin-1-yl)ethan-1-one], in assay [1], the “EC75, mexY (EC) strain, EM” value is “A (12.5 μM<EC75≤25 μM)” and the “EC75, mexY (EC) strain, LVFX” value is listed as “A (12.5 μM<EC75≤25 μM)”.

With `CCOc1cccc(F)c1CN1CCN(C(=O)[C@H](N)C2CCN(CCC34CC5CC(CC(C5)C3)C4)CC2)CC1` [Example 125], in assay [1], the “EC75, mexY (EC) strain, EM” value was “A (12.5 μM<EC75≤25 μM)”.

As to `COc1ccccc1CN1CCN(C(=O)CN2CCC(C(=O)Nc3ccccc3)CC2)CC1` [Example 408, Hydrochloride of 1-(2-(4-(2-methoxybenzyl)piperazin-1-yl)-2-oxoethyl)-N-phenylpiperidine-4-carboxamide], in assay [1], the “EC75, mexY (EC) strain, EM” value is “B (25 μM<EC75≤100 μM)” and the “EC75, mexY (EC) strain, LVFX” value is given as “B (25 μM<EC75≤100 μM)”.

Regarding `COc1ccccc1CN1CCN(C(=O)C(F)(F)C2CCN(CCc3ccccc3)CC2)CC1` [Example 299, hydrochloride of 2,2-difluoro-1-(4-(2-methoxybenzyl)piperazin-1-yl)-2-(1-phenethylpiperidin-4-yl)ethan-1-one], in assay [1], the “EC75, mexY (EC) strain, EM” value is on record as “B (25 μM<EC75≤100 μM)” and the “EC75, mexY (EC) strain, LVFX” value is “B (25 μM<EC75≤100 μM)”.

Consider `COc1ccccc1CN1CCN(C(=O)CN2CCC(CCc3ccccc3)(NC(N)=O)CC2)CC1` [Example 416, hydrochloride of 1-(1-(2-(4-(2-methoxybenzyl)piperazin-1-yl)-2-oxoethyl)-4-phenethylpiperidin-4-yl)urea], for which, in assay [1], the “EC75, mexY (EC) strain, EM” value is given as “B (25 μM<EC75≤100 μM)” and the “EC75, mexY (EC) strain, LVFX” value was “B (25 μM<EC75≤100 μM)”.

In the case of `CCOc1cccc(F)c1CN1CCN(C(=O)[C@H](N)C2CCN(CC(F)c3ccccc3)CC2)CC1` (stereo partly drawn) [Example 59, Hydrobromide of (2R)-2-amino-1-(4-(2-ethoxy-6-fluorobenzyl)piperazin-1-yl)-2-(1-(2-fluoro-2-phenylethyl)piperidin-4-yl) ethan-1-one], in assay [1], the “EC75, mexY (EC) strain, EM” value was “B (25 μM<EC75≤100 μM)” and the “EC75, mexY (EC) strain, LVFX” value is “B (25 μM<EC75≤100 μM)”.

Consider `CCOc1cccc(F)c1CN1CCN(C(=O)[C@H](N)C2CCN(CCc3cccc4ccc(OC)cc34)CC2)CC1` [Example 149, Hydrobromide of (R)-2-amino-1-(4-(2-ethoxy-6-fluorobenzyl)piperazin-1-yl)-2-(1-(2-(7-methoxynaphthalen-1-yl)ethyl)piperidin-4-yl)ethan-1-one], for which, in assay [2], the “EC99, S-3769 strain, AMK” value is on record as “S (EC99≤12.5 μM)” and the “EC99, S-3769 strain, GM” value is listed as “S (EC99≤12.5 μM)”. In assay [3], the “EC99, mexB (PA), AZT” value is listed as “C (100 μM<EC99)”; the “EC99, mexB (PA), LVFX” value is recorded as “C (100 μM<EC99)”; the “EC99, mexB (PA), TC” value is recorded as “B (25 μM<EC99≤100 μM)”.

As for `CCSc1cc(F)ccc1CN1CCN(C(=O)[C@H](N)C2CCN(CCc3cc(Cl)ccc3-c3ccccc3F)CC2)CC1` [Example 598, Hydrochloride of (R)-2-amino-2-(1-(2-(4-chloro-2′-fluoro-[1,1-biphenyl]-2-yl)ethyl)piperidin-4-yl)-1-(4-(2-(ethylthio)-4-fluorobenzyl)piperazin-1-yl) ethan-1-one], in assay [2], the “EC99, combinational effect with AMK, S-3769 strain” value (from here on “EC99, combinational effect with AMK”) is on record as “A (12.5 μM<EC99≤25 μM)” and the “EC99, combinational effect with GM, S-3769 strain” value (from here on “EC99, combinational effect with GM”) is “S (EC99≤12.5 μM)”. In assay [3], the “EC99, combinational effect with AZT, mexB (PA)” value (“EC99 … with AZT, mexB (PA)” for short) is “S (EC99≤12.5 μM)”; the “EC99, combinational effect with LVFX, mexB (PA)” value (shortened to “EC99 … with LVFX, mexB (PA)”) was “S (EC99≤12.5 μM)”; the “EC99, combinational effect with TC, mexB (PA)” value (“EC99 … with TC, mexB (PA)” for short) is reported as “S (EC99≤12.5 μM)”.

On to `CCOc1cccc(F)c1CN1CCN(C(=O)[C@H](N)C2CCN(CCc3cc(Cl)ccc3C3=CCCNC3)CC2)CC1` [Example 88, Hydrobromide of (R)-2-amino-2-(1-(5-chloro-2-(1,2,5,6-tetrahydropyridin-3-yl)phenethyl)piperidin-4-yl)-1-(4-(2-ethoxy-6-fluorobenzyl)piperazin-1-yl) ethan-1-one], for which, in assay [2], the “EC99, S-3769 strain, AMK” value is reported as “S (EC99≤12.5 μM)” and the “EC99, S-3769 strain, GM” value is “S (EC99≤12.5 μM)”. In assay [3], the “EC99, mexB (PA), AZT” value is “C (100 μM<EC99)”; the “EC99, mexB (PA), LVFX” value was “C (100 μM<EC99)”; the “EC99, mexB (PA), TC” value was “B (25 μM<EC99≤100 μM)”.

With `CCOc1cccc(F)c1CN1CCN(C(=O)[C@H](N)C2CCN(CCc3cc(Cl)ccc3-c3cccc4ccccc34)CC2)CC1` [Example 548, Hydrobromide of (R)-2-amino-2-(1-(5-chloro-2-(naphthalen-1-yl)phenethyl)piperidin-4-yl)-1-(4-(2-ethoxy-6-fluorobenzyl)piperazin-1-yl)ethan-1-one], in assay [2], the “EC99, combinational effect with AMK” value is on record as “S (EC99≤12.5 μM)” and the “EC99, combinational effect with GM” value is listed as “A (12.5 μM<EC99≤25 μM)”. Besides, in assay [3], the “EC99 … with AZT, mexB (PA)” value was “A (12.5 μM<EC99≤25 μM)”; the “EC99 … with LVFX, mexB (PA)” value was “S (EC99≤12.5 μM)”; the “EC99 … with TC, mexB (PA)” value is reported as “A (12.5 μM<EC99≤25 μM)”.

As to `CSc1cccc(Cl)c1CN1CCN(C(=O)[C@H](N)C2CCN(CCc3cc(Cl)ccc3-c3ccccc3)CC2)CC1` [Example 532, Hydrobromide of (R)-2-amino-1-(4-(2-chloro-6-(methylthio)benzyl)piperazin-1-yl)-2-(1-(2-(4-chloro-[1,1-biphenyl]-2-yl)ethyl)piperidin-4-yl)ethan-1-one], in assay [2], the “EC99, combinational effect with AMK” value is reported as “B (25 μM<EC99≤100 μM)” and the “EC99, combinational effect with GM” value is “B (25 μM<EC99≤100 μM)”. Further, in assay [3], the “EC99 … with AZT, mexB (PA)” value is given as “B (25 μM<EC99≤100 μM)”; the “EC99 … with LVFX, mexB (PA)” value is on record as “B (25 μM<EC99≤100 μM)”; the “EC99 … with TC, mexB (PA)” value is given as “B (25 μM<EC99≤100 μM)”.

(Values after patent US20250326744A1, “PIPERAZINE DERIVATIVE OR SALT THEREOF, AND PHARMACEUTICAL COMPOSITION” (priority 2022, published 2025).)
